Measured values reported in patent US20140023611A1 (priority 2010, published 2014).

Target: T1, rat NaP2b (SLC34A2) (Rattus norvegicus, UniProt Q9JJ09)
T1 construct: host or cells: HEK293
T1 sequence (Q9JJ09 1-695): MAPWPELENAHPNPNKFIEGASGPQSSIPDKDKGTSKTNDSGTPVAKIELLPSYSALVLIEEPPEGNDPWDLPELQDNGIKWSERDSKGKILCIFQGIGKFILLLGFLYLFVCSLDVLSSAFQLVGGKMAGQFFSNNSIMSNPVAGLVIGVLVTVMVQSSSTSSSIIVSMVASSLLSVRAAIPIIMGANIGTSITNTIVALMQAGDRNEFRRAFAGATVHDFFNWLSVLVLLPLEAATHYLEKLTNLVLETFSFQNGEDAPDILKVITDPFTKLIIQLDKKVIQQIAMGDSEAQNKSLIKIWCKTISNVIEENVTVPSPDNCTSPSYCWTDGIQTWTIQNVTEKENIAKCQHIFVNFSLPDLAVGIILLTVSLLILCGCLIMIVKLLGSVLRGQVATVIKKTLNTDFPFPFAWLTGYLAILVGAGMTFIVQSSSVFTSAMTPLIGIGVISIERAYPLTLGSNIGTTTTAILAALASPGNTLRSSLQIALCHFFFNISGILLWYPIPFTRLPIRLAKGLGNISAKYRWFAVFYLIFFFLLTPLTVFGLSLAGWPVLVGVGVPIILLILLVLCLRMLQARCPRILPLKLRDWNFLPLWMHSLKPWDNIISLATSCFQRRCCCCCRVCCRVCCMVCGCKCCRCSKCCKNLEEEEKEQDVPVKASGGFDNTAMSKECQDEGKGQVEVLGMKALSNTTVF
Assay: Inhibition of NaP2b-mediated Pi (33P) uptake in transfected HEK293 cells, rat NaP2b
Assay type: cell-based
Details: 33P Pi uptake, 0.1 mM phosphate, value given as pIC50 range
Procedure, shortened: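 The cells transiently expressed NaP2b after Lipofectamine transfection. Each compound was run in duplicate over twelve concentrations, 0.1 nM–30 uM.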

Structure (SMILES) | IC50 [µM]
COc1cc(C(=O)Nc2ccc(N3CCCCC3)cc2-c2cc(C(=O)NCc3cccc(C(F)(F)F)c3)ccn2)cc(C(=O)N(C)CCN2CCOCC2)c1 [Example 11.4, 5-Methoxy-N1-methyl-N1-(2-morpholinoethyl)-N3-(4-(piperidin-1-yl)-2-(4-((3-(trifluoromethyl)benzyl)carbamoyl)pyridin-2-yl)phenyl)isophthalamide] | 10 to 31.6
CC(=O)NC1CCN(C(=O)c2cccc(C(=O)Nc3ccc(N4CCCCC4)cc3-c3cc(C(=O)NCc4cccc(C(F)(F)F)c4)ccn3)c2)C1 (stereo in doubt) [Example 4.10, (S)-2-(2-(3-(3-Acetamidopyrrolidine-1-carbonyl)benzamido)-5-(piperidin-1-yl)phenyl)-N-(3-(trifluoromethyl)benzyl)isonicotinamide] | 10 to 31.6
CN(CCN1CCOCC1)C(=O)c1cccc(C(=O)Nc2ccc(N3CCCCC3)cc2-c2cc(C(=O)NCc3ccccc3OC(F)(F)F)ccn2)c1 [Example 123, N1-(2-(4-((2-(trifluoromethoxy)benzyl)carbamoyl)pyridin-2-yl)-4-(piperidin-1-yl)phenyl)-N3-methyl-N3-(2-morpholinoethyl)isophthalamide] | 1 to 7.94
O=C(NCc1cccc(C(F)(F)F)c1)c1ccnc(-c2cc(N3CCCCC3)ccc2NC(=O)c2cccc(Cn3cc(CCO)nn3)c2)c1 [Example 75, 2-(2-(3-((4-(2-Hydroxyethyl)-1H-1,2,3-triazol-1-yl)methyl)benzamido)-5-(piperidin-1-yl)phenyl)-N-(3-(trifluoromethyl)benzyl)isonicotinamide] | 10 to 31.6
O=C(O)CCSCc1cccc(C(=O)Nc2ccc(N3CCCCC3)cc2-c2cc(C(=O)NCc3ccc(F)c(OC(F)(F)F)c3)ccn2)c1 [Example 1.25] | 1 to 7.94
O=C(O)CCSCc1cccc(C(=O)Nc2ccc(N3CCCCC3)cc2-c2cc(C(=O)NCc3cccc(N4CCCCC4)c3)ccn2)c1 [Example 1.15] | 1 to 7.94
CCN(CCN1CCOCC1)C(=O)c1cccc(C(=O)Nc2ccc(N3CCCCC3)cc2-c2cc(C(=O)NCc3cccc(C(F)(F)F)c3)ccn2)c1 [Example 4.8, N1-Ethyl-N1-(2-morpholinoethyl)-N3-(4-(piperidin-1-yl)-2-(4-((3-(trifluoromethyl)benzyl)carbamoyl)pyridin-2-yl)phenyl)isophthalamide] | 1 to 7.94
CN(Cc1cccc(C(=O)O)c1)C(=O)c1cccc(C(=O)Nc2ccc(N3CCCCC3)cc2-c2cc(C(=O)NCc3cccc(C(F)(F)F)c3)ccn2)c1 [Example 4.32, 3-((N-Methyl-3-(4-(piperidin-1-yl)-2-(4-(3-(trifluoromethyl)benzylcarbamoyl)pyridin-2-yl)phenylcarbamoyl)benzamido)methyl)benzoic acid] | 1 to 7.94
O=C(NCc1cccc(C(F)(F)F)c1)c1ccnc(-c2cc(N3CCCCC3)ccc2NC(=O)c2cccc(Cn3ccc4c(C(=O)O)cccc43)c2)c1 [Example 9.1, 1-(3-((4-(Piperidin-1-yl)-2-(4-((3-(trifluoromethyl)benzyl)carbamoyl)pyridin-2-yl)phenyl)carbamoyl)benzyl)-1H-indole-4-carboxylic acid] | 1 to 7.94
O=C(O)CNC(=O)CCSCc1cccc(C(=O)Nc2ccc(N3CCCCC3)cc2-c2cc(C(=O)NCc3cccc(C(F)(F)F)c3)ccn2)c1 [Example 4.18, 2-(3-((3-((4-(Piperidin-1-yl)-2-(4-((3-(trifluoromethyl)benzyl)carbamoyl)pyridin-2-yl)phenyl)carbamoyl)benzyl)thio)propanamido)acetic acid] | 10 to 31.6
O=C(O)CCSCc1cccc(C(=O)Nc2ccc(N3CCCCC3)cc2-c2cc(C(=O)NCc3cccc(C(F)(F)F)c3)c(Cl)cn2)c1 [Example 90] | 10 to 31.6
O=C(O)CCCSCc1cccc(C(=O)Nc2ccc(N3CCCCC3)cc2-c2cc(C(=O)NCc3cccc(C(F)(F)F)c3)ccn2)c1 [Example 8.5] | 1 to 7.94
COCCNC(=O)C1CCCN(Cc2cccc(C(=O)Nc3ccc(N4CCCCC4)cc3-c3cc(C(=O)NCc4cccc(C(F)(F)F)c4)ccn3)c2)C1 (stereo in doubt) [Example 12.2, (R)-2-(2-(3-((3-((2-Methoxyethyl)carbamoyl)piperidin-1-yl)methyl)benzamido)-5-(piperidin-1-yl)phenyl)-N-(3-(trifluoromethyl)benzyl)isonicotinamide] | 10 to 31.6
CN(CCOCCO)C(=O)c1cccc(C(=O)Nc2ccc(N3CCCCC3)cc2-c2cc(C(=O)NCc3cccc(C(F)(F)F)c3)ccn2)c1 [Example 4.3, N1-(2-(2-Hydroxyethoxy)ethyl)-N1-methyl-N3-(4-(piperidin-1-yl)-2-(4-((3-(trifluoromethyl)benzyl)carbamoyl)pyridin-2-yl)phenyl)isophthalamide] | 1 to 7.94
Cc1cccc(CN(C)C(=O)c2ccnc(-c3cc(N4CCCCC4)ccc3NC(=O)c3cccc(CSCCC(=O)O)c3)c2)c1 [Example 1.38] | 10 to 31.6
O=C(O)CCSCc1cccc(C(=O)Nc2ccc(N3CCCCC3)cc2-c2cc(C(=O)NCc3cccc(C(F)(F)F)c3)c(F)cn2)c1 [Example 89] | 1 to 7.94

Next, values leading:

IC50 [µM] | Structure (SMILES)
< 1 | O=C(O)CCOCCOCCOCCOCCCc1cccc(C(=O)Nc2ccc(OC3CCCC3)cc2-c2cc(C(=O)N[C@H]3CCCc4ccccc43)ccn2)c1 [Example 347, (S)-16-(3-(4-(cyclopentyloxy)-2-(4-(1,2,3,4-tetrahydronaphthalen-1-ylcarbamoyl)pyridin-2-yl)phenylcarbamoyl)phenyl)-4,7,10,13-tetraoxahexadecan-1-oic acid]
1 to 7.94 | COCCOCCOCCOCCOCCOCCOCCOCC(=O)N1CCN(CCN(C)C(=O)c2cccc(C(=O)Nc3ccc(N4CCCCC4)cc3-c3cc(C(=O)N[C@H]4CCCc5ccccc54)ccn3)c2)CC1 [Example 228, (S)—N1-(2-(4-2,5,8,11,14,17,20,23-octaoxapentacosanepiperazin-1-yl)ethyl)-N1-methyl-N3-(4-(piperidin-1-yl)-2-(4-(1,2,3,4-tetrahydronaphthalen-1-ylcarbamoyl)pyridin-2-yl)phenyl)isophthalamide]
10 to 31.6 | CCCCN(C)c1ccc(NC(=O)c2cccc(C(=O)N(C)CCN3CCOCC3)c2)c(-c2cc(C(=O)NCc3cccc(C(F)(F)F)c3)ccn2)c1 [Example 127, N1-(4-(butyl(methyl)amino)-2-(4-(3-(trifluoromethyl)benzylcarbamoyl)pyridin-2-yl)phenyl)-N3-methyl-N3-(2-morpholinoethyl)isophthalamide]
10 to 31.6 | O=C(O)CN(CCOCCO)C(=O)CCOCCOCCOCCOCCSCc1cccc(C(=O)Nc2ccc(N3CCCCC3)cc2-c2cc(C(=O)NCc3cccc(C(F)(F)F)c3)ccn2)c1 [Example 145, 18-(2-(2-hydroxyethoxy)ethyl)-17-oxo-1-(3-(4-(piperidin-1-yl)-2-(4-(3-(trifluoromethyl)benzylcarbamoyl)pyridin-2-yl)phenylcarbamoyl)phenyl)-5,8,11,14-tetraoxa-2-thia-18-azaicosan-20-oic acid]
1 to 7.94 | CCN(CC)c1ccc(NC(=O)c2cccc(CCCOCCOCCOCCOCCNS(=O)(=O)c3ccc(C(=O)N4CCN(CCOCCOCCOCCOCCOCCOCCOC)C(=O)C4)cc3)c2)c(-c2cc(C(=O)NCc3cccc(C(F)(F)F)c3)ccn2)c1 [Example 288, 2-(2-(3-(1-(4-(4-(2,5,8,11,14,17,20-heptaoxadocosan-22-yl)-3-oxopiperazine-1-carbonyl)phenylsulfonamido)-3,6,9,12-tetraoxapentadecan-15-yl)benzamido)-5-(diethylamino)phenyl)-N-(3-(trifluoromethyl)benzyl)isonicotinamide]
1 to 7.94 | CCN(CC)c1ccc(NC(=O)c2cccc(CCCOCCOCCOCCOCCNS(=O)(=O)c3ccc(CCC(=O)NCCOCCOCCOCCOCCOCCOCCOC)cc3)c2)c(-c2cc(C(=O)NCc3cccc(C(F)(F)F)c3)ccn2)c1 [Example 296, 2-(5-(diethylamino)-2-(3-(1-(4-(24-oxo-2,5,8,11,14,17,20-heptaoxa-23-azahexacosan-26-yl)phenylsulfonamido)-3,6,9,12-tetraoxapentadecan-15-yl)benzamido)phenyl)-N-(3-(trifluoromethyl)benzyl)isonicotinamide]
10 to 31.6 | COCCN(CCOCCOCCOCCC(=O)O)CCN(C)C(=O)c1cccc(C(=O)Nc2ccc(N3CCCCC3)cc2-c2cc(C(=O)N[C@H]3CCCc4ccccc43)ccn2)c1 [Example 221, 5-{2-[N-methyl-1-(3-{[4-(piperidin-1-yl)-2-(4-{[(1S)-1,2,3,4-tetrahydronaphthalen-1-yl]carbamoyl}pyridin-2-yl)phenyl]carbamoyl}phenyl)formamido]ethyl}-2,8,11,14-tetraoxa-5-azaheptadecan-17-oic acid]
10 to 31.6 | COCCOCCOCCOCCOCCOCCOCCN(C)C(=O)[C@@H]1CCCN1CCN(C)C(=O)c1cccc(C(=O)Nc2ccc(N3CCCCC3)cc2-c2cc(C(=O)N[C@H]3CCCc4ccccc43)ccn2)c1 [Example 198, N^1-(2-((S)-2-(2,5,8,11,14,17,20-heptaoxadocosan-22-yl(methyl)carbamoyl)pyrrolidin-1-yl)ethyl)-N^1-methyl-N^3-(4-(piperidin-1-yl)-2-(4-(((S)-1,2,3,4-tetrahydronaphthalen-1-yl)carbamoyl)pyridin-2-yl)phenyl)isophthalamide]
